Results from US10441588B2, “Methods and compositions for treating bacterial infection” (Curators of the University of Missouri, priority 2012, dated 2019).
“Also recorded” adds a separate entry of the source.

What was measured:
[1] = tested on: group A streptococcus (GAS); assay: Group A streptococcus infection in mice; assay type: in vivo; conditions: GAS 105-6 CFU per mouse
Method: FIGS. 1A & 1B show the identification of a chemical series of compounds inhibiting group A streptococcus virulence. FIG. 1A) Microarray analysis of gene expression changes in MGAS2221 treated with CCG-102487 compared to DMSO. FIG. 1B) Effect of CCG-2979 on mice survival after infection with GAS (105-6 CFU per mouse).
A number of small molecules that can inhibit SK expression without impeding bacterial growth were evaluated. Furthermore, these compounds can inhibit gene expression of a broad spectrum of streptococcal virulence factors (FIG. 1A).

S. epidermis = S. epidermis growth inhibition, optical density, test/control; assay type: cell-based, Staphylococcus epidermidis; conditions: for activity at 100 µM: Staphylococcus epidermidis, growth of bacteria test/control by optical density
S. epidermis biofilm = S. epidermis biofilm inhibition, optical density, test/control; conditions: for activity at 100 µM: Staphylococcus epidermidis, read-out: S. epidermis Biofilm inhibition 100 μM vs. (−) Control, 100 μM; for activity at 100 µM / S. epidermis Biofilm inhibition 10 μM vs. (−) Control: growth of biofilm test/control by optical density
S. aureus biofilm = S. aureus biofilm inhibition, optical density, test/control; assay type: cell-based, Staphylococcus aureus; conditions: for activity at 100 µM / activity at 10 µM: Staphylococcus aureus
S. aureus = S. aureus growth inhibition, optical density, test/control; assay type: cell-based, Staphylococcus aureus; conditions: growth of bacteria test/control by optical density; for activity at 100 µM: Staphylococcus aureus
[2] = tested on: S. aureus RN6390 strain biofilm; assay: microbe, parasite or virus in culture; assay type: cell-based; conditions: for IC50: Staphylococcus aureus, read-out: IC50, inhibition of RN6390 biofilm formation
S. aurues strain RN6390 = assay: S. aureus RN6390 bacterial growth; assay type: cell-based; conditions: at 20 μM
Method: (§1) These compounds were then tested on staphylococcus biofilm formation. […] The two compounds (CCG-203592 and CCG-205363) were tested on S. aurues strain RN6390, which is reported to be more prone to biofilm formation than Newman strain.

[3] = tested on: S. aureus virulence factor genes; assay: S. aureus virulence factor gene expression, real time RT-PCR; assay type: cell-based; conditions: RN6390, 50 μM; ML, LL and S growth phase
[4] = tested on: S. aureus RN6390 strain biofilm; assay: Biofilm formation on medical grade silicone sheet; assay type: cell-based
S. aureus Newman biofilm = S. aureus Newman biofilm formation in microtiter plates; assay type: cell-based
Method: as §1

S. aureus Newman strain = assay: S. aureus lung infection model in mice; conditions: intranasal S. aureus Newman, 3-4×10^8 CFU per mouse
E. coli flagellin (fliC) = assay: microbe, parasite or virus in culture; assay type: cell-based; conditions: Escherichia coli, 6 h; for activity at 5 µM: read-out: E. coli flagellin production, Relative Level vs. Control, 5 μM; for activity at 25 µM: read-out: E. coli flagellin production, Relative Level vs. Control, 25 μM
P. aeruginosa = P. aeruginosa wound infection in DIO mice; assay type: in vivo; conditions: female DIO mice, 10^8 CFU; vancomycin treatment alone
[5] = 100 μM, growth of biofilm test/control by optical density
[6] = growth of biofilm test/control by optical density

Row | Compound | activity at 100 µM (S. epidermis) [%] | activity at 100 µM (S. aureus biofilm; [5]) [%] | activity at 100 µM (S. aureus) [%] | activity at 5 µM (E. coli flagellin (fliC)) [%] | activity at 25 µM (E. coli flagellin (fliC)) [%] | also measured
1 | C=CCn1c(SCCCC)nc2c(c1=O)C1(CCCCC1)Cc1ccccc1-2 [CCG-2979] | – | – | – | – | – | protection of mice against group A streptococcal infection (survival) [1]: capable of protecting mice
2 | C=CCn1c(SCc2ccc(OC)cc2)nc2c(c1=O)C1(CCCCC1)Cc1ccccc1-2 [CCG-102483] | 129 | – | – | – | – | activity at 100 µM (S. epidermis biofilm): 78.6%
3 | C=CCn1c(NCC)nc2c(c1=O)C1(CCCCC1)Cc1ccccc1-2 [CCG-203043] | – | 43.5 | 70 | – | – | S. epidermidis bacterial growth (S. epidermis; RP62A strain): without inhibition of bacterial growth; S. epidermis Biofilm inhibition 10 μM vs. (−) Control (S. epidermis biofilm): 0.169; S. epidermidis biofilm formation (S. epidermis biofilm; RP62A strain, microtiter plate): strong inhibition; activity at 100 µM (S. epidermis biofilm): 45%
4 | C=CCn1c(SCC)nc2c(c1=O)C(C)(C)Cc1cc(OC)ccc1-2 [CCG-203592] | – | 23 | 110 | – | – | activity at 10 µM (S. aureus biofilm; [6]): 40.2%; IC50, inhibition of S. aureus biofilm formation [2]: low μM range; IC50 [2]: 2.42 ± 0.14 µM; bacteria growth (S. aurues strain RN6390): without inhibiting bacteria growth; S. aureus virulence factor gene expression [3]: down regulated; also recorded: inhibited gene expression; biofilm formation on the surface of silicone sheet [4]: decreased biofilm formation; S. aureus Newman biofilm formation (S. aureus Newman biofilm): consistent inhibition; protection of mice in S. aureus lung infection model (S. aureus Newman strain): in vivo efficacy in protecting mice
5 | C=CCn1c(NCC)nc2c(c1=O)C(C)(C)Cc1ccccc1-2 [CCG-203804] | 103 | 10.3 | 66.2 | – | – | S. epidermis Biofilm inhibition 10 μM vs. (−) Control (S. epidermis biofilm): 0.858
6 | COCCSc1nc(OCC2OCCO2)c2c(n1)-c1ccccc1CC2(C)C [CCG-204030, 4-((1,3-dioxolan-2-yl)methoxy)-2-((2-methoxyethyl)thio)-5,5-dimethyl-5,6-dihydrobenzo[h]-quinazoline] | 111 | – | – | – | – | S. aureus Biofilm Inhibition 100 μM vs. (−) Control (S. aureus biofilm; [5]): 0.589; Growth Inhibition 100 μM vs. (−) Control (S. aureus): 0.919; activity at 100 µM (S. epidermis biofilm): 73.9%
7 | COCCOCCOc1nc(SCCOC)nc2c1C(C)(C)Cc1ccccc1-2 [CCG-204033, 4-(2-(2-Methoxyethoxy)ethoxy)-2-((2-methoxyethyl)thio)-5,5-dimethyl-5,6-dihydrobenzo[h]-quinazoline] | 103 | 59.9 | 83.8 | – | – | activity at 100 µM (S. epidermis biofilm): 75.6%
8 | C=CCSc1nc2c(c(=O)n1CC=C)C(C)(C)Cc1cc(OC)ccc1-2 [CCG-205363] | – | 44 | 95 | – | – | activity at 10 µM (S. aureus biofilm; [6]): 63.1%; IC50, inhibition of S. aureus biofilm formation [2]: low μM range; IC50 [2]: 6.96 ± 0.76 µM; bacteria growth (S. aurues strain RN6390): without inhibiting bacteria growth; S. aureus virulence factor gene expression [3]: inhibited gene expression; S. aureus Newman biofilm formation (S. aureus Newman biofilm): consistent inhibition
9 | COCCSc1nc(OCCCO)c2c(n1)-c1ccccc1CC2(C)C [CCG-205384, 3-((2-((2-Methoxyethyl)thio)-5,5-dimethyl-5,6-dihydrobenzo[h]quinazolin-4-yl)oxy)propan-1-ol] | 100 | 16 | 93.5 | – | – | S. epidermis Biofilm inhibition 10 μM vs. (−) Control (S. epidermis biofilm): 1.095
10 | C=CCn1c(SCC)nc2c(c1=O)C(C)(C)Cc1cc(OCCN(CC)CC)ccc1-2 [CCG-205396, 3-Allyl-8-(2-(diethylamino)ethoxy)-2-(ethylthio)-5,5-dimethyl-5,6-dihydrobenzo[h]-quinazolin-4(3H)-one] | 13 | 6.2 | – | – | – | activity at 10 µM (S. aureus biofilm; [6]): 68.4%; activity at 100 µM (S. epidermis biofilm): 3.7%
11 | C=CCn1c(SCC)nc2c(c1=O)C(C)(C)Cc1cc(OCCN3CCOCC3)ccc1-2 [CCG-205427] | 98 | – | 92.8 | – | – | activity at 10 µM (S. aureus biofilm; [6]): 73.4%; activity at 100 µM (S. epidermis biofilm): 76.6%
12 | C=CCn1c(SCCOC)nc2c(c1=O)C1(CCNCC1)Cc1ccccc1-2 [CCG-205447, 3-Allyl-2-((2-methoxyethyl)thio)-3H-spiro[benzo[h]quinazoline-5,4′-piperidin]-4(6H)-one] | 104 | – | 90 | – | – | activity at 10 µM (S. aureus biofilm; [6]): 110%; S. epidermis Biofilm inhibition 10 μM vs. (−) Control (S. epidermis biofilm): 0.936
13 | C=CCn1c(SCCOC)nc2c(c1=O)C1(CCN(C(=O)CCCC)CC1)Cc1ccccc1-2 [CCG-206227, 3-Allyl-2-((2-methoxyethyl)thio)-1′-pentanoyl-3H-spiro[benzo[h]quinazoline-5,4′-piperidin]-4(6H)-one] | 141 | 27 | – | – | – | biofilm formation by S. aureus (S. aureus biofilm): inhibit biofilm formation; activity at 10 µM (S. aureus biofilm; [6]): 52.8%; biofilm formation by S. epidermis (S. epidermis biofilm): inhibit biofilm formation; S. epidermis Biofilm inhibition 10 μM vs. (−) Control (S. epidermis biofilm): 0.943
14 | C=CCn1c(SCCOC)nc2c(c1=O)C(C)(C)Cc1cc(C(=O)NCCO)ccc1-2 [CCG-206239, 3-allyl-N-(2-hydroxyethyl)-2-((2-methoxyethyl)thio)-5,5-dimethyl-4-oxo-1,2,3,4,5,6-hexahydrobenzo[h]quinazoline-8-carboxamide] | 111 | 32.7 | – | – | – | –
15 | CCSc1nc2c(c(=O)n1C)C(C)(C)Cc1ccc(OC)cc1-2 [CCG-206353] | – | 32.3 | 92.1 | – | – | activity at 10 µM (S. aureus biofilm; [6]): 49.4%; S. epidermis Biofilm inhibition 10 μM vs. (−) Control (S. epidermis biofilm): 1.053; activity at 100 µM (S. epidermis biofilm): 34.7%
16 | COc1ccc2c(c1)CC(C)(C)c1c-2nc(SCC(F)(F)F)n(C)c1=O [IV501] | – | – | – | 36.2 | 47.5 | –
17 | COc1ccc2c(c1)CC(C)(C)c1c-2nc(SCC(F)(F)F)[nH]c1=O [IVG-00601-00A01] | – | – | – | 85.3 | 3.96 | –
18 | COc1ccc2c(c1)CC(C)(C)c1c(OC)nc(SCC(F)(F)F)nc1-2 [IVG-00607-00A01] | – | – | – | 63.4 | 27.5 | –
19 | COc1ccc2c(c1)CC(C)(C)c1c-2nc(S)n(C)c1=O [IVG-00608-00A01] | – | – | – | 82.8 | 48.9 | –
20 | COc1ccc2c(c1)CC(C)(C)c1c-2nc(NCCO)n(C)c1=O [IVG-00610-00A01] | – | – | – | 31.6 | 8.83 | –
21 | COc1ccc2c(c1)CC(C)(C)c1c-2nc(NCC(F)(F)F)n(C)c1=O [IVG-00611-00A01] | – | – | – | 19.6 | 13.6 | –
22 | COc1ccc2c(c1)CC(C)(C)c1c-2nc(N(C)CCO)n(C)c1=O [IVG-00612-00A01] | – | – | – | 18.1 | 12.9 | –
23 | CCNc1nc2c(c(=O)n1C)C(C)(C)Cc1cc(OC)ccc1-2 [IVG-00613-00A01] | – | – | – | 34.2 | 13.9 | –
24 | COc1ccc2c(c1)CC(C)(C)c1c-2nc(OCC(F)(F)F)n(C)c1=O [IVG-00614-00A01] | – | – | – | 24.4 | 26.2 | –
25 | CN[C@H](CC(C)C)C(=O)N[C@H]1C(=O)N[C@@H](CC(N)=O)C(=O)N[C@H]2C(=O)N[C@H]3C(=O)N[C@H](C(=O)N[C@H](C(=O)O)c4cc(O)cc(O)c4-c4cc3ccc4O)[C@H](O)c3ccc(c(Cl)c3)Oc3cc2cc(c3O[C@@H]2O[C@H](CO)[C@@H](O)[C@H](O)[C@H]2O[C@H]2C[C@](C)(N)[C@H](O)[C@H](C)O2)Oc2ccc(cc2Cl)[C@H]1O [vancomycin, reference compound] | – | – | – | – | – | survival (P. aeruginosa): 40%
